Laboratory results taken from patent US8841508B2, “Non-human mammalian animal model for type 2 diabetes” (National University Corporation, priority 2009, dated 2014).

Tests used:
[1] = tested on: KO mice (Cdkal1 knock-out mice, type 2 diabetes model); assay: Screening simulation: fasting and glucose-tolerance blood glucose level after Exendin-4 in KO mice; type: in vivo, mouse; conditions: intraperitoneal, 0.1 mg per kg twice a day, after 1 week and 2 weeks, ANOVA p=0.02
Experimental: (§1) To the KO mice used for the verification of periodical changes of blood glucose level, Exendin-4 which is an agonist of a glucagon-like peptide-1 receptor known as a therapeutic agent for type 2 diabetes was intraperitoneally administrated as a test substance. A degree of type 2 diabetes was then evaluated using the KO mice to simulate the screening of the preventive or therapeutic agent for type 2 diabetes caused by the Cdkal1 abnormality.
(§2) The procedures for evaluating the degree of type 2 diabetes consists of measuring the fasting blood glucose level and glucose-tolerance blood glucose level for KO mice and WT mice, comparing the blood glucose levels for both of the mice, and evaluating them. In this test, Exendin-4 was administered twice a day for 2 weeks at a rate of 0.1 mg per kg, of body weight.

[2] = tested on: WT mice (wild type mice); assay: Screening simulation: fasting and glucose-tolerance blood glucose level after Exendin-4 in WT mice; type: in vivo, mouse; conditions: intraperitoneal, 0.1 mg per kg twice a day, after 1 week and 2 weeks, ANOVA p=0.02
Experimental: as §1, §2

Exendin-4
glucose tolerance (blood glucose level after glucose tolerance) [1]: significantly improved glucose tolerance | glucose tolerance (blood glucose level after glucose tolerance) [2]: significantly improved glucose tolerance
